According to US12419950B2, “Saponin-based vaccine adjuvants” (THE UAB RESEARCH FOUNDATION, priority 2019, dated 2025):
Marks after values point to notes of the source that are not given here.

Legend:
[1] = tested on: antibody responses to chicken egg ovalbumin (OVA); assay: Serum IgG, IgG1 and IgG2a anti-OVA response (ELISA) in mice immunized s.c. with OVA plus adjuvant; format: in vivo, BALB/c mice; set-up: IgG2a, serum IgG subclass anti-OVA activity at week 6: unit not given here; details: for IgG1, serum IgG subclass anti-OVA activity at week 6 / IgG2a, serum IgG subclass anti-OVA activity at week 6: OVA 20 μg + adjuvant 100 μg s.c. days 0, 14, 28; for IgG1, serum IgG subclass anti-OVA activity at week 6 / IgG2a, serum IgG subclass anti-OVA activity at week 6 / IgG2a/IgG1, anti-OVA at week 6: mean ± SEM; for IgG2a/IgG1, anti-OVA at week 6: OVA 20 μg + adjuvant 100 μg s.c.; for IgG2a anti-OVA response in words / serum IgG anti-OVA response compared with OVA alone: study of saponins 3-6; for serum IgG anti-OVA response compared with OVA alone: weeks 2, 4, 6
Method: With pure natural saponins 3 and 4, and their derivatives 5 and 6 (FIG. 7) available, their ability to potentiate antibody responses to chicken egg ovalbumin (OVA) was evaluated. The known saponin adjuvant GPI-0100 was used as a positive control. Thus, groups of female BALB/c mice (8-10 weeks of age, six per group) were immunized by the subcutaneous route (s.c.) with OVA (20 μg) alone or with GPI-0100, saponins 3-6 at 100 μg dose on days 0, 14 and 28. Mice were weighed and serum samples were collected prior to each immunization and at 6 weeks after the initial immunization. The levels of serum IgG antibody activity to OVA were determined by enzyme-linked immunosorbent assay (ELISA), as shown in FIGS. 6A-6C, 9A-9C, and Table 1.
Their ability to potentiate antibody responses to chicken egg ovalbumin (OVA) was then evaluated. The known saponin adjuvant GPI-0100 was one of the positive controls. Also used was the recently reported MS derivative VSA-1 (4a) as the other positive control. Its high IgG1/IgG2a production and low toxicity are similar to that of GPI-0100. Thus, groups of female BALB/c mice (8-10 weeks of age, six per group) were immunized by the subcutaneous route (s.c.) with OVA (20 μg) alone or with GPI-0100, or a MS saponin derivative at 100 μg dose on days 0, 14 and 28. Mice were weighed and serum samples were collected prior to each immunization and at 2 weeks following the last immunization. The levels of serum antibody activity to OVA were determined by enzyme-linked immunosorbent assay (ELISA).
BALB/c mice used in this study were from Frederick Cancer Research (Fredrick, MD). To assess the adjuvant activity of the MS saponin-based immune adjuvants, groups of female mice (8-10 weeks of age; 6 mice per group) were immunized by the subcutaneous (s.c.) route with OVA (20 μg) or rHagB (35 μg) alone, or with antigen plus proper adjuvant such as GPI-0100 (100 μg) or a MS adjuvant (100 μg) on days 0, 14 and 28. Prior to each immunization and at two weeks post last immunization, mice were weighed and blood samples were collected from the lateral tail vein by using heparinized capillary pipettes. The serum was obtained after centrifugation and stored at −20° C. until assayed.
The levels of specific serum IgG and IgG subclasses against OVA or rHagB in each group were determined by an enzyme-linked immunosorbent assay (ELISA). Maxisorpmicrotiter plates (NUNC International, Roskilde, DK) were coated with rHagB (1 μg/ml), OVA (0.1 μg/ml), or with optimal amounts of goat anti-mouse IgG, IgG1 or IgG2a in borate buffer saline (BBS; 100 mM NaCl, 50 mM boric acid, 1.2 mM Na2B4O7, pH 8.2) at 4° C. overnight. Plates were blocked with 1% bovine serum albumin (BSA) and 0.02% sodium azide in BBS for 2 h at room temperature. Serial two-fold dilutions of serum samples were added in duplicate to the plates. To generate standard curves, serial dilutions of a mouse immunoglobulin reference serum (MP Biomedicals, Solon, OH) were added to two rows of wells in each plate that had been coated with the appropriate anti-mouse IgG or IgG subclass reagent. After incubation (overnight at 4° C.) and washing of the plates, horseradish peroxidase-conjugated goat anti-mouse IgG or IgG subclass antibody was added to appropriate wells. After 4 h of incubation at room temperature, plates were washed and developed by o-phenylenediamine substrate with hydrogen peroxide. Color development was recorded at 490 nm. The concentrations of antibodies were determined by interpolation on standard curves generated by using the mouse immunoglobulin reference serum and constructed by a computer program based on four-parameter logistic algorithms (Softmax/Molecular Devices Corp., Menlo Park, CA).
Statistical significance in antibody responses was evaluated by t tests (with unpaired, nonparametric and Mann-Whiteny test) using GraphPad Prism 8. Differences were considered significant at a P value<0.05.

serum Ab titers = details: in vivo; cited from earlier work

| Compound | IgG1, serum IgG subclass anti-OVA activity at week 6 [1] | IgG2a, serum IgG subclass anti-OVA activity at week 6 [1] | IgG2a/IgG1, anti-OVA at week 6 [1] | IgG2a anti-OVA response in words [1] | serum IgG anti-OVA response compared with OVA alone [1] | boost of serum Ab titers compared to vaccine alone (serum Ab titers) |
| --- | --- | --- | --- | --- | --- | --- |
| CC1OC(OC2C(O)C(C(=O)O)OC(OC3CCC4(C)C(CCC5(C)C4CC=C4C6CC(C)(C)CCC6(C(=O)OC6OC(C)C(O)C(O)C6OC6OC(C)C(OC7OCC(O)C(O)C7O)C(OC7OC(CO)C(O)C(OC8OCC(O)C(O)C8O)C7O)C6O)CCC45C)C3(C)C=O)C2OC2OC(CO)C(O)C(O)C2O)C(O)C(O)C1O (centres unmarked) [compound 3, Momordica saponin I] | 233 ± 74 µg/mL | 0.2 | <0.001** | negligible IgG2a responses | did not show significant difference in IgG responses from the OVA group |  |
| Momordica saponins II [compound 4] | 262 ± 37 µg/mL | 0.1 | <0.001** | negligible IgG2a responses | significant difference in IgG responses from the OVA group at weeks 2 (P<0.01) and 4 (P<0.001) but not at week 6 |  |
| monophosphoryl lipid A [MPL] |  |  |  |  |  | 10-20 fold |
